Experimental data as given in US5792467A, “Repellent compositions containing aromatic aldehydes” (Proguard, Inc., priority 1996, dated 1998).
“Also recorded” adds a separate entry of the source. Where two headings read alike, the source gives them in different places.

What was measured:
[1] = system: Aedes Aegypsi (yellow fever mosquito); test: Median Effective Dose to repel Aedes aegypti, mosquito blood feeder; format: in vivo; conditions: Bandruche membrane, 37°, acetone formulation
Protocol: Median Effective Dose (ED50) is defined as the amount of chemical required to repel 50% of a target pest. […] The test system used was a mosquito blood feeder, which includes a constant temperature water circulator to warm the blood in the feeder, and the test cage. The blood was maintained at 37°. The blood feeder has five circular blood reservoirs, each of which is filled with outdated blood obtained from the Walter Reed Army Medical Center and certified safe according to Blood Bank testing procedures. The blood was replenished with adenosine triphosphate (ATP), without which the mosquitoes will not feed freely. The blood-filledreservoirs were covered with a Bandruche membrane (a standard membrane barrier). […] DEET was used as a positive control in a similar manner. A negative control formulation (water only) also was tested. The mosquitoes were given access to the blood reservoirs on a "free feeding" basis by means of a sliding door in the bottom of the test cage.

[2] = 25° C.; cited from earlier work
[3] = 33% DEET; cited from earlier work
[4] = cited from earlier work
[5] = system: yellow fever mosquito (Aedes aegypti (L)); test: Direct skin application, protection time against yellow fever mosquito; format: in vivo; conditions: 1 ml 100% HCA on forearm
Protocol: (§1) A glove was worn to protect the untreated hand while the treated forearm was exposed in a cage containing a high number (2,000-4,000) of unfed mosquitoes for 3 minutes at intervals of approximately 30 minutes until two bites were received (two bites in one test period or one bite in each of two consecutive test periods). The time interval between application and when two bites were received was defined as the "protection time." The repellent classes based on protection time (minutes) are listed below: […]

[6] = system: malaria mosquito (Anopheles quadrimaculatus Say); test: Direct skin application, protection time against malaria mosquito; format: in vivo; conditions: 1 ml 100% HCA on forearm
Protocol: as §1

yellow fever mosquito = test: Application to clothing, treated stocking against yellow fever mosquito; format: in vivo, Aedes aegypti; conditions: cotton stocking, 3.3 g/ft^2
Protocol: HCA also was evaluated on treated cloth against the yellow fever mosquito. In these tests, women's mercerized-cotton stockings were used. […] The stocking was spread on a rack to dry and then hung indoors on a line. The first tests were done 24 hours after treatment. The treated stocking was drawn over the arm, with the treated portion midway on the forearm. The untreated hand was protected with a glove and the stocking-covered arm was exposed for one minute in a testcage. If 5 bites were received, the treatment was considered ineffective. If less than 5 bites were received; the exposures were continued daily until the 14th day and at weekly or biweekly intervals thereafter.

human subjects [7] = conditions: 12% in petrolatum, 48 hour closed patch; cited from earlier work
human subjects [8] = conditions: 20% in diethylphthalate, 100 human subjects; cited from earlier work
human = conditions: cited from earlier work
[9] = system: eczema and dermatitis patients; conditions: human, in vivo; cited from earlier work
[10] = system: patients sensitive to 2% cinnamaldehyde; conditions: human, in vivo; cited from earlier work
rats = conditions: rat, in vivo; cited from earlier work
[11] = cited from earlier work; remark: listed apart in the source
[12] = system: grape phylloxera (Daktulosphaira vitifoliae Fitch); test: Treatment of grapevine leaves for control of root forms of grape phylloxera; format: in vivo; conditions: for Number of Phylloxera on 6 root sections, Eggs: water 52; for Number of Phylloxera on 6 root sections, 1st instar / Number of Phylloxera on 6 root sections, 2nd instar / Number of Phylloxera on 6 root sections, 3rd instar: water 7; for Number of Phylloxera on 6 root sections, 4th instar: water 13; for Number of Phylloxera on 6 root sections, Adults: water 16
Protocol: The root form of grape phylloxera (Daktulosphaira vitifoliae Fitch) is arguably the most devastating grape insect world wide. In this experiment, cinnamic aldehyde formulated with 1% Tween 80 was tested for ability to control phylloxera. One year old potted V. vinifera cultivar merlot plants were used that had been obtained from Foundation Plant Material Service, University of California, Davis. The plants were potted in 10 cm diameter ports and were infested with phylloxera 5 weeks prior to treatment. At the time of spraying, plant pots were placed in a plastic bag so that chemical runoff from the leaf sprays would not drip into the soil. Spray was applied to runoff with a household 1 liter-capacity plastic spray bottle. Plants were allowed to air dry outside and then replaced in the greenhouse. At intervals thereafter, the roots were separated from the potting mix and total phylloxera population estimated.
Roots from plants at 5 weeks post-treatment were excised and 6 root sections, about 3 mm diameter by 4 cm length were cleaned of infestations and used in a bioassay. For this bioassay, root sections were inoculated with 20 eggs and the roots maintained as the colonies were maintained. After 25 days, the number of individuals of each age class were counted.

[13] = system: Western Flower Thrips (Thysanoptera); test: Repellency to Western Flower Thrips on alfalfa inflorescence; format: in vivo; conditions: 2% coniferyl aldehyde, 1% Tween 80
Text: Western Flower Thrips (Thysanoptera) were collected in the field on infested alfalfa (Medicago sativa). Alfalfa inflorescence were cut then dipped in either a coniferyl aldehyde formulation (2% coniferyl aldehyde, 1% Tween 80) or a water control, then were placed in an experimental arena (approximately 9 cm in diameter by 6 centimeter in height) on a Whatman filter paper disk covering the floor of the arena. Approximately fifty (50) to sixty (60) insects were aspirated into the experimental arena which was then covered with a transparent lid. […] Repellency was determined by the relative number of individuals who successfully maintained feeding and colonization on the inflorescence over time.

Compound: CCN(CC)C(=O)c1cccc(C)c1 [DEET, N,N-diethyl-1,3-methylbenzamide]
- Median Effective Dose (ED50) [1]: 0.0124 mg/cm^2
- vapor pressure [2]: 167×10^-5 mm Hg
- duration of protection [3]: 10 to 14 h
- adverse effects ([4]; repeated use on skin in high concentrations): can cause allergic and toxic effects

Compound: CCCCCCC(C=O)=Cc1ccccc1 [HCA, 2-(phenylmethylene) octanal]
- Median Effective Dose (ED50) [1]: 0.0031 mg/cm^2
- protection time [5]: 121 to 180 min
- repellent class based on protection time ([5]; USDA rating scale): 3 (121-180)
- protection time [6]: 31 to 60 min
- repellent class based on protection time ([6]; USDA rating scale): 2 (31-60)
- duration of effectiveness on treated cloth (yellow fever mosquito): more than 10 days
- protection time grade on treated cloth (yellow fever mosquito): 4 (effective for more than 10 days)
- irritation (human subjects [7]): no irritation
- positive reactions, repeated insult patch test (human subjects [8]): no positive reactions
- human maximization test result (human; in vivo): negative
- patch test positive results out of 100 [9]: 0
- patients found to be sensitive [10]: none
- oral LD50 (rats): 3100 mg/kg
- dermal LD50 [11]: greater than 3 g/kg

Compound: O=C/C=C/c1ccccc1 [cinnamic aldehyde]
- Number of Phylloxera on 6 root sections, Eggs ([12]; 300 ppm, 1% Tween 80, roots 5 weeks post-treatment, 25 days): 16
- Number of Phylloxera on 6 root sections, 1st instar ([12]; 300 ppm): 0
- Number of Phylloxera on 6 root sections, 2nd instar ([12]; 300 ppm): 6
- Number of Phylloxera on 6 root sections, 3rd instar ([12]; 300 ppm): 5
- Number of Phylloxera on 6 root sections, 4th instar ([12]; 300 ppm): 0
- Number of Phylloxera on 6 root sections, Adults ([12]; 300 ppm): 4
- Number of Phylloxera on 6 root sections, 1st instar ([12]; 1000 ppm): 0
- Number of Phylloxera on 6 root sections, 2nd instar ([12]; 1000 ppm): 1
- Number of Phylloxera on 6 root sections, 3rd instar ([12]; 1000 ppm): 4
- Number of Phylloxera on 6 root sections, 4th instar ([12]; 1000 ppm): 2
- Number of Phylloxera on 6 root sections, Adults ([12]; 1000 ppm): 1
- Number of Phylloxera on 6 root sections, Eggs ([12]; 1000 ppm): 2
- Number of Phylloxera on 6 root sections, 1st instar ([12]; 3000 ppm): 0
- Number of Phylloxera on 6 root sections, 2nd instar ([12]; 3000 ppm): 2
- Number of Phylloxera on 6 root sections, 3rd instar ([12]; 3000 ppm): 1
- Number of Phylloxera on 6 root sections, 4th instar ([12]; 3000 ppm): 1
- Number of Phylloxera on 6 root sections, Adults ([12]; 3000 ppm): 0
- Number of Phylloxera on 6 root sections, Eggs ([12]; 3000 ppm): 0
- Number of Phylloxera on 6 root sections, 1st instar ([12]; 10,000 ppm): 0
- Number of Phylloxera on 6 root sections, 2nd instar ([12]; 10,000 ppm): 2
- Number of Phylloxera on 6 root sections, 3rd instar ([12]; 10,000 ppm): 0
- Number of Phylloxera on 6 root sections, 4th instar ([12]; 10,000 ppm): 0
- Number of Phylloxera on 6 root sections, Adults ([12]; 10,000 ppm): 0
- Number of Phylloxera on 6 root sections, Eggs ([12]; 10,000 ppm): 0
- duration of resistance of excised roots to phylloxera reinfestation ([12]; after foliage treatment): at least 5 weeks
- feeding sites after foliage treatment ([12]; foliage of whole plants treated): Vacant feeding sites were seen
- human maximization test result (human; literature data, Jimbo (1983)): positive reaction

Compound: CCCC(O)C(CC)CO (stereo not shown) [ethyl hexanediol]
- adverse effects ([4]; basis of 1991 EPA cancellation of registrations): possible adverse effects of the compound on fetal development

Compound: COc1cc(/C=C/C=O)ccc1O [Coniferyl Aldehyde, coniferyl aldehyde]
- Number of insects on inflorescence (colonization and feeding) ([13]; about 50-60 insects, 30 min, water control 22(alive)): 2(dead)
- Description of insect behavior ([13]; control tranquil, normal flight, feeding): Irritated by treatment; also recorded: extreme agitation; also recorded: frequent flying. No
- Length of insect residence time on inflorescence ([13]; max, water control 30 minutes): ≤ 15 s
